Results on one compound are retold here after US20230240958A1, “COSMETIC COMPOSITION WITH ENHANCED COLOR STABILITY FOR RETINOIC ACID PRECURSOR” (Conopco, Inc., d/b/a UNILEVER, priority 2020, published 2023).

The nature of the data set: Color stability by LabScan XE (CIELAB L*, a*, b*, ΔE) after storage. It is filed as physicochemical. The conditions noted are these: Examples 3 and 4.

Protocol: Generally, ΔE≤10 is acceptable, ΔE between 10 to 20 is negotiable and ΔE>20 is unacceptable. For the b* value, the values represent a blue-yellow component of an object's color, wherein a negative (−) value represents movement into the blue color space while a positive (+) value represents movement into the yellow color space. A b* value of 0 represents a true neutral gray value.
Color stability is determined through the use of LabScan XE equipment (Hunter Associates Laboratory, Inc. Reston, Va.). LabScan XE measures color data. Samples at different storage stages housed in vials or in measurement cells are loaded onto the LabScan XE measurement port. By following the measurement procedure specified in the associated instrument menu and computer software, colors (a*, b* and L*) are measured and calculated to result in a color change data (ΔE) value. b* is the scale of blue-yellow space based on the CIELAB color space model, wherein an increase in b* value indicates the increase in yellow color components, and the decrease of b* value indicates the increase of blue color components.

As for `CCCCCCCCCCCCCC(=O)OC(C)C` [isopropyl myristate], the “color stability / ΔE over time, comparison in words” value is “greater color stability”.
